Activity calls are given as the source filed them.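 The calls were made as follows: active = parasite count per well reduced by over 3 SD from the mean, with host cell number above 80% of untreated; inactive = the rest.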
Tested on: L. donovani amastigotes in THP-1 macrophages, DAPI imaging, 72 h
Experiment: L. donovani intracellular amastigote growth inhibitors, imaging, THP-1 host macrophages, single concentration (AID 977614);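 also: signal is the parasite per host cell ratio from DAPI stained kinetoplasts and nuclei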

Structure (SMILES)	AC50
O=C(c1ccccc1F)N1C[C@H]2[C@@H](c3ccccc31)[C@H](CO)N2C(=O)Nc1ccccc1	> 10 µM (inactive)
C/C=C/c1ccc([C@H]2[C@H](CO)N(C(C)=O)[C@H]2CNC(=O)c2ccccc2)cc1	> 10 µM (inactive)
O=S(=O)(c1ccccc1)N1[C@@H]2CNc3ccccc3[C@@H]2[C@@H]1CO	> 10 µM (inactive)
C[C@@H]1CN([C@H](C)CO)C(=O)CCCn2nncc2CO[C@@H]1CN(C)C(=O)Nc1ccnc(N2CCOCC2)c1	> 10 µM (inactive)
CC(=O)N1[C@@H](CO)[C@H](c2ccccc2)[C@@H]1CNC(=O)CN1CCOCC1	> 10 µM (inactive)
CN(C[C@@H]1[C@@H](c2ccccc2)[C@@H](CO)N1Cc1ccccn1)S(C)(=O)=O	> 10 µM (inactive)
O=C(C1CCC1)N1C[C@H]2[C@@H](c3ccccc31)[C@@H](CO)N2C(=O)Nc1cccc(F)c1	> 10 µM (inactive)
CCN(C[C@H]1[C@H](c2ccccc2)[C@@H](CO)N1C(C)=O)C(=O)NC1CCCC1	> 10 µM (inactive)
O=C(CN1CCOCC1)N1[C@@H](CO)[C@@H]2c3ccccc3NC[C@@H]21	> 10 µM (inactive)
CC(=O)N1[C@H](CO)[C@@H](c2ccccc2)[C@@H]1CNC(=O)CN1CCOCC1	> 10 µM (inactive)
C[C@H]1CN([C@@H](C)CO)C(=O)CCCn2nncc2CO[C@H]1CN(C)C(=O)c1ccc(N2CCN(C)CC2)cc1	> 10 µM (inactive)
O=C(NC[C@@H]1[C@@H](c2ccccc2)[C@@H](CO)N1Cc1cccnc1)c1ccccn1	> 10 µM (inactive)
O=C(Nc1ccc(F)cc1)N1C[C@@H]2[C@H](c3ccccc31)[C@@H](CO)N2C(=O)c1ccncc1	> 10 µM (inactive)
C[C@@H]1CN([C@@H](C)CO)C(=O)CCCn2cc(nn2)CO[C@H]1CN(C)C(=O)Nc1ccc2c(c1)OCO2	> 10 µM (inactive)
O=C(CC(F)(F)F)N1C[C@@H]2[C@H](c3ccccc31)[C@H](CO)N2C(=O)C1CCCCC1	> 10 µM (inactive)
C/C=C/c1ccc([C@H]2[C@@H](CO)N[C@@H]2CNC(=O)C2CC2)cc1	> 10 µM (inactive)
O=C(c1cccc(F)c1)N1C[C@H]2[C@@H](c3ccccc31)[C@@H](CO)N2Cc1cocn1	> 10 µM (inactive)
C/C=C/c1ccc([C@H]2[C@H](CO)N(S(C)(=O)=O)[C@H]2CNCC2CCC2)cc1	> 10 µM (inactive)
O=C(c1ccccn1)N1C[C@@H]2[C@H](c3ccccc31)[C@H](CO)N2C(=O)Nc1ccccc1Cl	> 10 µM (inactive)
COc1ccccc1C(=O)N1C[C@@H]2[C@H](c3ccccc31)[C@@H](CO)N2C(=O)Cc1ccccc1	> 10 µM (inactive)
O=C(c1ccc2c(c1)OCO2)N1C[C@H]2[C@@H](c3ccccc31)[C@H](CO)N2C(=O)CC1CC1	> 10 µM (inactive)
COc1ccccc1NC(=O)N1C[C@H]2[C@@H](c3ccccc31)[C@@H](CO)N2C(=O)C1CCCC1	> 10 µM (inactive)
C[C@@H]1CN([C@H](C)CO)C(=O)CCCn2nncc2CO[C@H]1CN(C)Cc1cccc(C(F)(F)F)c1	> 10 µM (inactive)
O=C(CN1CCOCC1)NC[C@@H]1N[C@@H](CO)[C@@H]1c1ccc(-c2ccccc2)cc1	> 10 µM (inactive)
C[C@@H]1CN([C@@H](C)CO)C(=O)CCCn2nncc2CO[C@H]1CN(C)S(=O)(=O)c1cn(C)cn1	> 10 µM (inactive)
C[C@H]1CN([C@@H](C)CO)C(=O)CCCn2cc(nn2)CO[C@@H]1CN(C)C(=O)Nc1cccc2ccccc12	> 10 µM (inactive)

Structure (SMILES)	AC50
C[C@@H]1CN([C@@H](C)CO)C(=O)CCCn2nncc2CO[C@@H]1CN(C)C(=O)Nc1cccc(Oc2ccccn2)c1	> 10 µM (inactive)
C[C@@H]1CN([C@H](C)CO)C(=O)CCCn2nncc2CO[C@H]1CN(C)C(=O)Nc1cccc(Oc2ccccn2)c1	> 10 µM (inactive)
C/C=C/c1ccc([C@@H]2[C@H](CO)N[C@H]2CN(CC)C(=O)CN2CCOCC2)cc1	> 10 µM (inactive)
C[C@H](CO)N1C[C@H](C)[C@@H](CN(C)C(=O)Oc2cccc3ccccc23)OCc2cnnn2CCCC1=O	> 10 µM (inactive)
O=C(Nc1ccccc1F)N1C[C@@H]2[C@H](c3ccccc31)[C@H](CO)N2C(=O)Cc1cccnc1	> 10 µM (inactive)
COc1ccccc1CN1[C@H](CO)[C@@H]2c3ccccc3N(C(=O)c3cccnc3)C[C@@H]21	> 10 µM (inactive)
COc1ccc(CN2[C@@H]3CNc4ccccc4[C@@H]3[C@@H]2CO)cc1	> 10 µM (inactive)
Cc1noc(C)c1S(=O)(=O)N(C)C[C@H]1OCc2cn(nn2)CCCC(=O)N([C@@H](C)CO)C[C@H]1C	> 10 µM (inactive)
C[C@H](CO)N1C[C@H](C)[C@H](CN(C)Cc2ccc(C(=O)Nc3ccccc3N)cc2)OCc2cnnn2CCCC1=O	> 10 µM (inactive)
CCCNC[C@@H]1[C@@H](c2ccc(C3=CCCCC3)cc2)[C@@H](CO)N1C(=O)C1CCC1	> 10 µM (inactive)
O=S(=O)(NC[C@@H]1[C@H](c2ccccc2)[C@H](CO)N1CC1CC1)c1ccccc1	> 10 µM (inactive)
CC(C)NC[C@@H]1[C@H](c2ccc(C3=CCCCC3)cc2)[C@H](CO)N1S(C)(=O)=O	> 10 µM (inactive)
C[C@@H]1CN([C@H](C)CO)C(=O)CCCn2nncc2CO[C@H]1CN(C)S(=O)(=O)c1ccc(Oc2ccccc2)nc1	> 10 µM (inactive)
CCCNC(=O)N(C)C[C@H]1[C@H](c2ccccc2)[C@@H](CO)N1C(=O)c1ccccc1	> 10 µM (inactive)
COc1ccccc1NC(=O)N1C[C@@H]2[C@H](c3ccccc31)[C@H](CO)N2C(=O)C1CCCC1	> 10 µM (inactive)
CCC(=O)N1[C@H](CO)[C@H]2c3ccccc3N(S(=O)(=O)c3ccc(F)cc3)C[C@H]21	> 10 µM (inactive)
O=C(Nc1ccccc1F)N1C[C@H]2[C@@H](c3ccccc31)[C@@H](CO)N2C(=O)Cc1cccnc1	> 10 µM (inactive)
C[C@H]1CN([C@@H](C)CO)C(=O)CCCn2nncc2CO[C@H]1CN(C)C(=O)c1ccc2ccn(C)c2c1	> 10 µM (inactive)
CC(=O)N1[C@H](CO)[C@@H]2c3ccccc3N(S(=O)(=O)c3ccccc3C)C[C@@H]21	> 10 µM (inactive)
CCCNC(=O)N1[C@@H](CO)[C@@H]2c3ccccc3N(C(=O)Nc3cccc(Cl)c3)C[C@@H]21	> 10 µM (inactive)
C/C=C/c1ccc([C@H]2[C@@H](CO)N(S(=O)(=O)CC)[C@@H]2CN(C)C(=O)CC)cc1	> 10 µM (inactive)
CC(=O)N1[C@H](CO)[C@H](c2ccccc2)[C@@H]1CN(C)S(=O)(=O)c1ccccc1	> 10 µM (inactive)
CC(=O)N1[C@H](CO)[C@@H](c2ccccc2)[C@@H]1CN(CC(C)C)C(=O)c1ccccn1	> 10 µM (inactive)
O=C(Nc1ccc(F)cc1)N1[C@H](CO)[C@H]2c3ccccc3NC[C@H]21	> 10 µM (inactive)
CCCC#Cc1ccc([C@H]2[C@@H](CO)N(C(C)=O)[C@H]2CN(C)C(=O)C2CC2)cc1	> 10 µM (inactive)
C[C@H](CO)N1C[C@H](C)[C@H](CN(C)CC2CCCCC2)OCc2cnnn2CCCC1=O	> 10 µM (inactive)

Structure (SMILES)	AC50
C/C=C/c1ccc([C@H]2[C@@H](CNC(C)C)N(C(=O)c3ccccn3)[C@H]2CO)cc1	> 10 µM (inactive)
CC(=O)N(Cc1cccc(F)c1)C[C@H]1[C@@H](c2ccccc2)[C@@H](CO)N1C(C)=O	> 10 µM (inactive)
C/C=C/c1ccc([C@@H]2[C@@H](CO)N(C(C)=O)[C@@H]2CNC(=O)c2ccccc2)cc1	> 10 µM (inactive)
CC(=O)NC[C@H]1[C@@H](c2ccc(C#CC(C)C)cc2)[C@@H](CO)N1Cc1ccccn1	> 10 µM (inactive)
C[C@@H]1CN([C@@H](C)CO)C(=O)CCCn2nncc2CO[C@H]1CN(C)S(=O)(=O)c1ccc2c(c1)OCCCO2	> 10 µM (inactive)
O=C(CN1CCOCC1)N1[C@@H]2CNc3ccccc3[C@@H]2[C@@H]1CO	> 10 µM (inactive)
CC(=O)N1C[C@H]2[C@@H](c3ccccc31)[C@@H](CO)N2Cc1ccc(Cl)cc1	> 10 µM (inactive)
CC(C)NC(=O)N1[C@H](CO)[C@@H](c2ccccc2)[C@@H]1CN(C)C(=O)c1cccnc1	> 10 µM (inactive)
COc1ccc(CN2[C@@H](CO)[C@@H]3c4ccccc4NC[C@@H]32)cc1	> 10 µM (inactive)
C[C@H]1CN([C@@H](C)CO)C(=O)CCCn2cc(nn2)CO[C@@H]1CN(C)C(=O)Nc1cccc(C(F)(F)F)c1	> 10 µM (inactive)
COCC(=O)N1C[C@H]2[C@@H](c3ccccc31)[C@@H](CO)N2Cc1cc(F)ccc1F	> 10 µM (inactive)
Cc1noc(C)c1NC(=O)N(C)C[C@H]1OCc2cn(nn2)CCCC(=O)N([C@@H](C)CO)C[C@H]1C	> 10 µM (inactive)
C[C@@H]1CN([C@H](C)CO)C(=O)CCCn2nncc2CO[C@@H]1CN(C)S(=O)(=O)c1ccccc1C#N	> 10 µM (inactive)
C[C@@H]1CN([C@H](C)CO)C(=O)CCCn2nncc2CO[C@@H]1CN(C)C(=O)Oc1cccc2ccccc12	> 10 µM (inactive)
O=C(CC1CC1)N1[C@H](CO)[C@@H]2c3ccccc3N(S(=O)(=O)c3ccccc3F)C[C@@H]21	> 10 µM (inactive)
Cc1noc(C)c1NC(=O)N(C)C[C@@H]1OCc2cnnn2CCCC(=O)N([C@@H](C)CO)C[C@@H]1C	> 10 µM (inactive)
C[C@@H]1CN([C@@H](C)CO)C(=O)CCCn2nncc2CO[C@H]1CN(C)Cc1ccc(C(=O)Nc2ccccc2N)cc1	> 10 µM (inactive)
Cc1noc(C)c1S(=O)(=O)N(C)C[C@@H]1OCc2cnnn2CCCC(=O)N([C@H](C)CO)C[C@@H]1C	> 10 µM (inactive)
CC(=O)N1[C@@H](CO)[C@@H]2c3ccccc3N(S(=O)(=O)c3ccccc3C)C[C@@H]21	> 10 µM (inactive)
CCCNC(=O)N1C[C@H]2[C@@H](c3ccccc31)[C@@H](CO)N2Cc1cccc(OC)c1	> 10 µM (inactive)
CN1C[C@H]2[C@@H](c3ccccc31)[C@H](CO)N2S(=O)(=O)c1ccccc1	> 10 µM (inactive)
O=C(CC1CC1)N1[C@@H](CO)[C@@H]2c3ccccc3N(S(=O)(=O)c3ccccc3F)C[C@@H]21	> 10 µM (inactive)
CCC(=O)N(CC(C)C)C[C@H]1[C@H](c2ccccc2)[C@@H](CO)N1C(=O)C1CCC1	> 10 µM (inactive)
C[C@H](CO)N1C[C@H](C)[C@@H](CN(C)Cc2ccccc2)OCc2cn(nn2)CCCC1=O	> 10 µM (inactive)

Reference: PubChem BioAssay AID977614 (Broad Institute, 2014)
